System: SKM MF
Assay: SKM MF AC1.4: ATPase screen of skeletal sarcomeric proteins with PK/LDH coupled enzyme system
Assay type: biochemical
Parameters: AC1.4 Median: unit not given here
Conditions: for SKM MF AC1.4 (μM): median value (footnote †)
Procedure: For example, test compounds can be assayed in a highly parallel fashion by using multiwell plates by placing the compounds either individually in wells or testing them in mixtures. Assay components including the target protein complex, coupling enzymes and substrates, and ATP can then be added to the wells and the absorbance or fluorescence of each well of the plate can be measured with a plate reader.
In some embodiments, the method uses a 384 well plate format and a 25 μL reaction volume. A pyruvate kinase/lactate dehydrogenase coupled enzyme system (Huang T G and Hackney D D. (1994) J Biol Chem 269(23):16493-501) can be used to measure the rate of ATP hydrolysis in each well. As will be appreciated by those in the art, the assay components are added in buffers and reagents. The incubation periods can be optimized to give adequate detection signals over the background. The assay can be done in real time giving the kinetics of ATP hydrolysis which increases the signal to noise ratio of the assay.
Just prior to screening, the actin, tropomyosin, and troponin complex are mixed together in the desired ratio (e.g., 7:1:1) to achieve maximal calcium regulation of the actin filament. The screen is conducted at a pCa=6.5. This calcium concentration is in the physiological range during muscle contraction.
To measure the generation of ADP during the reaction, a pyruvate kinase/lactate dehydrogenase/NADH coupled enzyme system (PK/LDH) is added to the actin. The myosin is kept separately. The plates are read in real time so that kinetic curves are obtained. These compounds are in DMSO and were already spotted onto the bottoms of 384 well plates at 10 to 40 μg/ml final concentration.

Molecule | AC1.4 Median | SKM MF AC1.4 (μM) | SKM MF AC1.4 [µM]
C=CCn1c(O)nc2ncc(Cl)c(I)c21 [6-chloro-7-iodo-1-prop-2-enylimidazo[4,5-b]pyridin-2-ol] | 23.0211 | – | –
CCc1cnc2nc(O)n(C(CC)CC)c2c1 [6-ethyl-1-(pentan-3-yl)-1H-imidazo[4,5-b]pyridin-2-ol] | 41.9678 | 41.9678^† μM | –
C#Cc1cnc2nc(O)n(C(CC)CC)c2c1 [6-ethynyl-1-(pentan-3-yl)-1H-imidazo[4,5-b]pyridin-2-ol] | 0.1667 | 0.1563^† μM | –
CCC(CC)n1c(O)nc2ncc(F)cc21 [6-fluoro-1-(pentan-3-yl)-1H-imidazo[4,5-b]pyridin-2-ol] | 12.9347 | 12.9347^† μM | –
CCC(CC)n1c(O)nc2ncc(C)cc21 [6-methyl-1-(pentan-3-yl)-1H-imidazo[4,5-b]pyridin-2-ol] | 10.2517 | – | 5.7
CCC(CC)n1c(O)nc2ncc(Cl)c(/C=N/OCC(C)C)c21 [7-[(1E)-2-(2-methylpropoxy)-2-azavinyl]-6-chloro-1-(ethylpropyl)imidazo[4,5-b]pyridin-2-ol] | 11.4532 | – | –
CCC(CC)n1c(O)nc2ncc(Cl)c(/C=N/OCc3ccccc3)c21 [7-[(1E)-2-(phenylmethoxy)-2-azavinyl]-6-chloro-1-(ethylpropyl)imidazo[4,5-b]pyridin-2-ol] | 39.7159 | – | –
CCC(CC)n1c(O)nc2ncc(Cl)c(/C=N/OC(C)(C)C)c21 [7-[(1E)-2-(tert-butoxy)-2-azavinyl]-6-chloro-1-(ethylpropyl)imidazo[4,5-b]pyridin-2-ol] | 1.8945 | – | –
CCC(CC)n1c(O)nc2ncc(Cl)c(/C=N\OCC(C)C)c21 [7-[(1Z)-2-(2-methylpropoxy)-2-azavinyl]-6-chloro-1-(ethylpropyl)imidazo[4,5-b]pyridin-2-ol] | 22.4644 | – | –
CCC(CC)n1c(O)nc2ncc(Cl)c(/C=N\OCc3ccccc3)c21 [7-[(1Z)-2-(phenylmethoxy)-2-azavinyl]-6-chloro-1-(ethylpropyl)imidazo[4,5-b]pyridin-2-ol] | 42.0392 | – | –
CCC(CC)n1c(O)nc2ncc(Cl)c(/C=N\OC(C)(C)C)c21 [7-[(1Z)-2-(tert-butoxy)-2-azavinyl]-6-chloro-1-(ethylpropyl)imidazo[4,5-b]pyridin-2-ol] | 19.5317 | – | –
CCOC(=O)CSSCc1c(Cl)cnc2nc(O)n(C(CC)CC)c12 [ethyl 2-({[6-chloro-1-(ethylpropyl)-2-hydroxyimidazo[4,5-b]pyridin-7-yl]methyl}disulfanyl)acetate] | 11.7273 | – | –
COC(=O)N1CCN(C[C@@H](CC(C)C)n2c(O)nc3cc(Cl)cnc32)CC1 [methyl 4-[(2R)-2-(6-chloro-2-hydroxyimidazo[4,5-b]pyridinyl)-4-methylpentyl]piperazinecarboxylate] | 8.3875 | – | –
COC(=O)c1c(Cl)cnc2nc(O)[nH]c12 [methyl 6-chloro-2-hydroxyimidazo[4,5-b]pyridine-7-carboxylate] | 1.7026 | – | –
CCC(CC)n1c(O)nc2ncc(Cl)c(C3=CCN(C(=O)OC(C)(C)C)CC3)c21 [tert-butyl 4-[6-chloro-1-(ethylpropyl)-2-hydroxyimidazo[4,5-b]pyridin-7-yl]-1,2,5,6-tetrahydropyridinecarboxylate] | 26.7443 | – | –
[1-(ethylpropyl)-6-ethynyl-2-hydroxyimidazo[4,5-b]pyridin-7-yl]-N-methylcarboxamide | 6.7023 | – | –
methyl 1-(ethylpropyl)-2-hydroxyimidazo[4,5-b]pyridine-7-carboxylate | 17.1735 | – | –
methyl 4-[(2R)-2-(6-chloro-2-hydroxyimidazo[4,5-b]pyridinyl)butyl]piperazinecarboxylate | 18.2493 | – | –
tert-butyl 4-[6-chloro-1-(ethylpropyl)-2-hydroxyimidazo[4,5-b]pyridin-7-yl]-4-hydroxypiperidinecarboxylate | 28.2335 | – | –

— patent US7851484B2, “Certain chemical entities, compositions, and methods” (Cytokinetics, Inc., priority 2007, dated 2010)
